Target: T1, Human Factor D (Homo sapiens, UniProt P00746)
T1 construct: purified from human serum; purchased Complement Technology, Inc; host or cells: human serum (natural protein, not recombinant)
Experiment: Human Factor D Assay
Assay type: biochemical
Conditions: Human Factor D 80 nM, substrate Z-L-Lys-SBzl, assay of Example 3; read-out: IC50 (Stars)
How it was run: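 Serum-purified human factor D (80 nM final) preincubated 5 min at room temperature with test compound in 50 mM Tris, 1M NaCl, pH 7.5. Z-L-Lys-SBzl substrate and DTNB then added, each at 100 μM final. IC50 from nonlinear regression of reaction rate against compound concentration.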

T1 sequence (P00746 26-253): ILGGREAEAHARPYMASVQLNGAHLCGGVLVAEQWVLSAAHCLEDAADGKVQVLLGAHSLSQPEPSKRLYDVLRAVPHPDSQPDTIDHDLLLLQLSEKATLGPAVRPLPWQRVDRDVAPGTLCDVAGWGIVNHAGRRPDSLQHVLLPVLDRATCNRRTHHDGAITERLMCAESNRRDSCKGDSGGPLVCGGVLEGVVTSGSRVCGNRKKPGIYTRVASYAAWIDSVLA

IC50 | Structure (SMILES)
< 1000 nM | CC(=O)c1nn(CC(=O)N2[C@H](C(=O)Nc3nc(Br)ccc3C)C[C@@]3(C)C[C@@H]23)c2c3c(c(-c4cnc(C)nc4)cc12)CCCO3 [Compound 20]
< 1000 nM | CC(=O)c1nn(CC(=O)N2[C@H](C(=O)Nc3nc(Br)ccc3C)C[C@@]3(C)C[C@@H]23)c2c(C)cc(-c3cnc(CO)nc3)cc12 [Compound 27, (1R,3S,5R)-2-(2-(3-Acetyl-5-(2-(hydroxymethyl)pyrimidin-5-yl)-7-methyl-1H-indazol-1-yl)acetyl)-N-(6-bromo-3-methylpyridin-2-yl)-5-methyl-2-azabicyclo[3.1.0]hexane-3-carboxamide]
< 1000 nM | CC(=O)c1nn(CC(=O)N2[C@H](C(=O)NCCc3cccnc3)C[C@@]3(C)C[C@@H]23)c2c(C)cc(-c3cnc(C)nc3)cc12 [Compound 7, (1R,3S,5R)-2-(2-(3-Acetyl-7-methyl-5-(2-methylpyrimidin-5-yl)-1H-indazol-1-yl)acetyl)-5-methyl-N-(2-(pyridin-3-yl)ethyl)-2-azabicyclo[3.1.0]hexane-3-carboxamide]

Same assay, conditions: Human Factor D 80 nM, substrate Z-L-Lys-SBzl; Table 2; read-out: IC50 (Stars)

IC50 | Structure (SMILES)
< 1000 nM | CC(=O)c1nn(CC(=O)N2[C@H](C(=O)Nc3nc(C(F)(F)F)ccc3C)C[C@@]3(C)C[C@@H]23)c2c(C)cc(-c3cnc4cc(CO)nn4c3)cc12 [Compound 227, (1R,3S,5R)-2-(2-(3-acetyl-5-(2-(hydroxymethyl)pyrazolo[1,5-a]pyrimidin-6-yl)-7-methyl-1H-indazol-1-yl)acetyl)-5-methyl-N-(3-methyl-6-(trifluoromethyl)pyridin-2-yl)-2-azabicyclo[3.1.0]hexane-3-carboxamide]
< 1000 nM | CC(=O)c1nn(CC(=O)N2C[C@H]3C[C@H]3[C@H]2C(=O)Nc2nc(Br)ccc2Cl)c2c(C)cc(-c3cnc(CO)nc3)cc12 [Compound 75, (1R,2S,5S)-3-(2-(3-acetyl-5-(2-(hydroxymethyl)pyrimidin-5-yl)-7-methyl-11H-indazol-1-yl)acetyl)-N-(6-bromo-3-chloropyridin-2-yl)-3-azabicyclo[3.1.0]hexane-2-carboxamide]
< 1000 nM | CC(=O)c1cn(CC(=O)N2[C@H](C(=O)Nc3cncc(Br)n3)C[C@@]3(C)C[C@@H]23)c2c(C)cc(-c3cnc4cc(C)nn4c3)cc12 [Compound 210, (1R,3S,5R)-2-(2-(3-acetyl-7-methyl-5-(2-methylpyrazolo[1,5-a]pyrimidin-6-yl)-1H-indol-1-yl)acetyl)-N-(6-bromopyrazin-2-yl)-5-methyl-2-azabicyclo[3.1.0]hexane-3-carboxamide]
< 1000 nM | CC(=O)c1nn(CC(=O)N2[C@H](C(=O)Nc3nc(Br)ccc3C)C[C@@]3(C)C[C@@H]23)c2ccc(-c3cncc(S(C)(=O)=O)c3)cc12 [Compound 121, (1R,3S,5R)-2-(2-(3-Acetyl-5-(5-(methylsulfonyl)pyridin-3-yl)-1H-indazol-1-yl)acetyl)-N-(6-bromo-3-methylpyridin-2-yl)-5-methyl-2-azabicyclo[3.1.0]hexane-3-carboxamide]
< 1000 nM | COCc1ncc(-c2cc(C)c3c(c2)c(C(C)=O)nn3CC(=O)N2[C@H](C(=O)Nc3nc(Br)ccc3C)C[C@@]3(C)C[C@@H]23)cn1 [Compound 60, (1R,3S,5R)-2-(2-(3-acetyl-5-(2-(methoxymethyl)pyrimidin-5-yl)-7-methyl-11H-indazol-1-yl)acetyl)-N-(6-bromo-3-methylpyridin-2-yl)-5-methyl-2-azabicyclo[3.1.0]hexane-3-carboxamide]
< 1000 nM | CC(=O)c1nn(CC(=O)N2[C@H](C(=O)Nc3nc(Br)ccc3C)C[C@@]3(C)C[C@@H]23)c2c(C)cc(-c3cnc(C(N)=O)nc3)cc12 [Compound 53, (1R,3S,5R)-2-(2-(3-acetyl-5-(2-carbamoylpyrimidin-5-yl)-7-methyl-1H-indazol-1-yl)acetyl)-N-(6-bromo-3-methylpyridin-2-yl)-5-methyl-2-azabicyclo[3.1.0]hexane-3-carboxamide]
< 1000 nM | CC(=O)c1nn(CC(=O)N2[C@H](C(=O)Nc3nc(Br)ccc3C)C[C@@]3(C)C[C@@H]23)c2c(C)cc(-c3cnc(C(C)O)cn3)cc12 (stereo partly drawn) [Compound 176, (1R,3S,5R)-2-(2-(3-acetyl-5-(5-(1-hydroxyethyl)pyrazin-2-yl)-7-methyl-1H-indazol-1-yl)acetyl)-N-(6-bromo-3-methylpyridin-2-yl)-5-methyl-2-azabicyclo[3.1.0]hexane-3-carboxamide]
< 1000 nM | COc1cc(Br)nc(NC(=O)[C@@H]2C[C@@]3(C)C[C@H]3N2C(=O)Cn2nc(C(N)=O)c3cc(-c4cnc(C)nc4)nc(C)c32)c1 [Compound 113, 1-(2-((1R,3S,5R)-3-((6-bromo-4-methoxypyridin-2-yl)carbamoyl)-5-methyl-2-azabicyclo[3.1.0]hexan-2-yl)-2-oxoethyl)-7-methyl-5-(2-methylpyrimidin-5-yl)-1H-pyrazolo[3,4-c]pyridine-3-carboxamide]
< 1000 nM | CC(=O)c1cn(CC(=O)N2[C@H](C(=O)Nc3nc(Br)ccc3C)C[C@@]3(C)C[C@@H]23)c2ccc(-c3cnc4cc(C)nn4c3)cc12 [Compound 202, (1R,3S,5R)-2-(2-(3-acetyl-5-(2-methylpyrazolo[1,5-a]pyrimidin-6-yl)-1H-indol-1-yl)acetyl)-N-(6-bromo-3-methylpyridin-2-yl)-5-methyl-2-azabicyclo[3.1.0]hexane-3-carboxamide]
< 1000 nM | CC(=O)c1nn(CC(=O)N2[C@H](C(=O)Nc3nc(Br)c(F)cc3C)C[C@@]3(C)C[C@@H]23)c2c(C)cc(-c3cnc(CO)cn3)cc12 [Compound 131, (1R,3S,5R)-2-(2-(3-acetyl-5-(5-(hydroxymethyl)pyrazin-2-yl)-7-methyl-1H-indazol-1-yl)acetyl)-N-(6-bromo-5-fluoro-3-methylpyridin-2-yl)-5-methyl-2-azabicyclo[3.1.0]hexane-3-carboxamide]
< 1000 nM | COC(=O)c1ncc(-c2cc(C)c3c(c2)c(C(C)=O)nn3CC(=O)N2[C@H](C(=O)Nc3nc(C(F)(F)F)ccc3C)C[C@@]3(C)C[C@@H]23)cn1 [Compound 50, Methyl 5-(3-acetyl-7-methyl-1-(2-((1R,3S,5R)-5-methyl-3-((3-methyl-6-(trifluoromethyl)pyridin-2-yl)carbamoyl)-2-azabicyclo[3.1.0]hexan-2-yl)-2-oxoethyl)-1H-indazol-5-yl)pyrimidine-2-carboxylate]
< 1000 nM | CC(=O)c1cn(CC(=O)N2[C@H](C(=O)Nc3nc(C(F)(F)F)ccc3C)C[C@@]3(C)C[C@@H]23)c2c(C)cc(-c3cnc4cc(CO)nn4c3)cc12 [Compound 226, (1R,3S,5R)-2-(2-(3-acetyl-5-(2-(hydroxymethyl)pyrazolo[1,5-a]pyrimidin-6-yl)-7-methyl-1H-indol-1-yl)acetyl)-5-methyl-N-(3-methyl-6-(trifluoromethyl)pyridin-2-yl)-2-azabicyclo[3.1.0]hexane-3-carboxamide]
< 1000 nM | CC(=O)c1nn(CC(=O)N2[C@H](C(=O)NCCc3cc[nH]n3)C[C@@]3(C)C[C@@H]23)c2c(C)cc(-c3cnc(C)nc3)cc12 [Compound 106, (1R,3S,5R)-2-{2-[3-acetyl-7-methyl-5-(2-methylpyrimidin-5-yl)indazol-1-yl]acetyl}-5-methyl-N-[2-(1H-pyrazol-3-yl)ethyl]-2-azabicyclo[3.1.0]hexane-3-carboxamide]
< 1000 nM | CC(=O)c1nn(CC(=O)N2[C@H](C(=O)Nc3ccc(F)c(Br)n3)C[C@@]3(C)C[C@@H]23)c2c(C)cc(-c3cnc(C(C)O)nc3)cc12 (stereo partly drawn) [Compound 125, (1R,3S,5R)-2-(2-(3-acetyl-5-(2-(1-hydroxyethyl)pyrimidin-5-yl)-7-methyl-11H-indazol-1-yl)acetyl)-N-(6-bromo-5-fluoropyridin-2-yl)-5-methyl-2-azabicyclo[3.1.0]hexane-3-carboxamide]
< 1000 nM | CC(=O)c1cn(CC(=O)N2[C@H](C(=O)Nc3nc(C(F)(F)F)ccc3C)C[C@@]3(C)C[C@@H]23)c2c(C)cc(-c3cnc(CO)nc3)cc12 [Compound 161, (1R,3S,5R)-2-(2-(3-acetyl-5-(2-(hydroxymethyl)pyrimidin-5-yl)-7-methyl-1H-indol-1-yl)acetyl)-5-methyl-N-(3-methyl-6-(trifluoromethyl)pyridin-2-yl)-2-azabicyclo[3.1.0]hexane-3-carboxamide]

Structure (SMILES) | IC50
CC(=O)c1nn(CC(=O)N2[C@H](C(=O)N[C@@H](C(C)(C)C)C(F)(F)F)C[C@@]3(C)C[C@@H]23)c2c(C)cc(-c3cnc(C)nc3)cc12 [Compound 154, (1R,3S,5R)-2-{2-[3-acetyl-7-methyl-5-(2-methylpyrimidin-5-yl)indazol-1-yl]acetyl}-5-methyl-N-[(2S)-1,1,1-trifluoro-3,3-dimethylbutan-2-yl]-2-azabicyclo[3.1.0]hexane-3-carboxamide] | 1000 to 10000 nM

— patent publication US20230022157A1 (Achillion Pharmaceuticals, Inc., priority 2018, published 2023)
